From patent US11084829B2, “Ubiquitin-specific-processing protease 7 (USP7) modulators and uses thereof” (RAPT THERAPEUTICS, INC., priority 2018, dated 2021)
pIC50: −log10 of the molar value.

Biological target: USP7 (Homo sapiens, UniProt Q93009)
Assay: USP7 inhibitory potency (IC50)
Type: biochemical
Experimental: Activity for compounds described herein is provided in Table 2, wherein potency levels are provided as follows: (Potency: USP7 IC50: A<0.01 μM; B=0.01-0.1 μM; C=>0.1 μM.

Chain of USP7 (Q93009 whole entry): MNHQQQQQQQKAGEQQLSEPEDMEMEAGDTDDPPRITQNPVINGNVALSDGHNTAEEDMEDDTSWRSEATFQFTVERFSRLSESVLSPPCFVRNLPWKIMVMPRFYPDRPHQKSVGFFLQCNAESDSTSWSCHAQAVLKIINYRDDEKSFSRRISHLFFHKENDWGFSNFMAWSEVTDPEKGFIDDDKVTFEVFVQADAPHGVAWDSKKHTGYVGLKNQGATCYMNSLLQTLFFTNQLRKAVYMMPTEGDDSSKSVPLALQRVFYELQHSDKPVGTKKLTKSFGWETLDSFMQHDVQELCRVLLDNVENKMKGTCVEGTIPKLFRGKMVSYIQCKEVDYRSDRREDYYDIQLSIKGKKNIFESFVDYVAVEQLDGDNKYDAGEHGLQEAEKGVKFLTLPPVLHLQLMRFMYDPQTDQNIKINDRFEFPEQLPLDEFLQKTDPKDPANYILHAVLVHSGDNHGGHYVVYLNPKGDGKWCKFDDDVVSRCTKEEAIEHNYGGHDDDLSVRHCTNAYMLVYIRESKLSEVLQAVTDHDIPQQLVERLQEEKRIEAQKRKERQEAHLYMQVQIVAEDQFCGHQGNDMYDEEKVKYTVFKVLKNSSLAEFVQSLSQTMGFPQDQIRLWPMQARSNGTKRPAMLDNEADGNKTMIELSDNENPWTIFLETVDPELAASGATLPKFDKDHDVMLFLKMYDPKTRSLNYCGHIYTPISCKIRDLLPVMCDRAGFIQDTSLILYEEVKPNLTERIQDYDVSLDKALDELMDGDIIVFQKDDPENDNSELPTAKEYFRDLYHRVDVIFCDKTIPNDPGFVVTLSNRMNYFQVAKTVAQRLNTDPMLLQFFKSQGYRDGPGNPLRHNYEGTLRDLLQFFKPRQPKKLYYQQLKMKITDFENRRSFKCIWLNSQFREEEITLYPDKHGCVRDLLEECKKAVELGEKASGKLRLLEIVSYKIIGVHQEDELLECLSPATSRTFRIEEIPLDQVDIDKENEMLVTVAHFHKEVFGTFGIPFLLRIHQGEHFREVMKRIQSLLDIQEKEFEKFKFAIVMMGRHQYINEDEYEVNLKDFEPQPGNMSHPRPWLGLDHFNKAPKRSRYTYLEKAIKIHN

SMILES | pIC50
Cc1cc(Cl)cc(-c2ccnc3cc(CN4C(=O)C5CC5C4=O)sc23)c1CC1COCCN1 (centres unmarked) [Example 115, 3-((7-(5-chloro-3-methyl-2-(morpholin-3-ylmethyl)phenyl)thieno[3,2-b]pyridin-2-yl)methyl)-3-azabicyclo[3.1.0]hexane-2,4-dione] | < 7.00
Cc1cc(Cl)cc(-c2ccnc3cc(CN4C(=O)CCC4=O)sc23)c1CN1[C@@H](C)CNC[C@@H]1C [Example 14, 1-((7-(5-chloro-2-(((2S,6S)-2,6-dimethylpiperazin-1-yl)methyl)-3-methylphenyl)thieno[3,2-b]pyridin-2-yl)methyl)pyrrolidine-2,5-dione] | > 8.00
Cc1cc(Cl)cc(-c2ncnc3cc(CN4C(=O)C5CC5C4=O)sc23)c1CC1CNCC2(CCC2)O1 (centres unmarked) [Example 207, 3-((4-(2-((5-oxa-8-azaspiro[3.5]nonan-6-yl)methyl)-5-chloro-3-methylphenyl)thieno[3,2-d]pyrimidin-6-yl)methyl)-3-azabicyclo[3.1.0]hexane-2,4-dione] | > 8.00
Cc1cc(Cl)cc(-c2ncnc3cc(CN4C(=O)C5CC5C4=O)sc23)c1C[C@@H]1CNCC(C)(C)O1 (stereo partly drawn) [Example 216, 3-((4-(5-chloro-2-(((R)-6,6-dimethylmorpholin-2-yl)methyl)-3-methylphenyl)thieno[3,2-d]pyrimidin-6-yl)methyl)-3-azabicyclo[3.1.0]hexane-2,4-dione] | > 8.00
Cc1cc(Cl)cc(-c2ncnc3cc(CN4C(=O)OC[C@@H]4CF)sc23)c1C[C@@H]1CNCC(C)(C)O1 [Example 263, (R)-3-((4-(5-chloro-2-(((R)-6,6-dimethylmorpholin-2-yl)methyl)-3-methylphenyl)thieno[3,2-d]pyrimidin-6-yl)methyl)-4-(fluoromethyl)oxazolidin-2-one] | > 8.00
Cc1cc(Cl)cc(-c2ncnc3cc(CN4C(=O)C5CC5C4=O)sc23)c1C[C@H]1CN(C(=O)C(F)(F)F)CCO1 (stereo partly drawn) [Example 198, 3-((4-(5-chloro-3-methyl-2-(((S)-4-(2,2,2-trifluoroacetyl)morpholin-2-yl)methyl)phenyl)thieno[3,2-d]pyrimidin-6-yl)methyl)-3-azabicyclo[3.1.0]hexane-2,4-dione] | < 7.00
Cc1cc(Cl)cc(-c2ncnc3cc(CN4C(=O)C5CC5C4=O)sc23)c1C[C@H]1OCCN[C@@H]1C (stereo partly drawn) [Example 160, 3-((4-(5-chloro-3-methyl-2-(((2R,3R)-3-methylmorpholin-2-yl)methyl)phenyl)thieno[3,2-d]pyrimidin-6-yl)methyl)-3-azabicyclo[3.1.0]hexane-2,4-dione] | > 8.00
Cc1cc(Cl)cc(-c2ccnc3cc(Cn4c(=O)ccn(C)c4=O)sc23)c1CN1C[C@@H](C)NC[C@@H]1C [Example 46, 3-((7-(5-chloro-2-(((2S,5R)-2,5-dimethylpiperazin-1-yl)methyl)-3-methylphenyl)thieno[3,2-b]pyridin-2-yl)methyl)-1-methylpyrimidine-2,4(1H,3H)-dione] | > 8.00
Cn1ccc(=O)n(Cc2cc3nccc(-c4cc(Cl)cc(Cl)c4CC4CNCCO4)c3s2)c1=O (centres unmarked) [Example 142, 3-((7-(3,5-dichloro-2-(morpholin-2-ylmethyl)phenyl)thieno[3,2-b]pyridin-2-yl)methyl)-1-methylpyrimidine-2,4(1H,3H)-dione] | > 8.00
Cc1cc(Cl)cc(-c2ccnc3cc(CN4C(=O)C5CC5C4=O)sc23)c1C[C@H]1OCCN[C@H]1C (stereo partly drawn) [Example 106, 3-((7-(5-chloro-3-methyl-2-(((2R,3 S)-3-methylmorpholin-2-yl)methyl)phenyl)thieno[3,2-b]pyridin-2-yl)methyl)-3-azabicyclo[3.1.0]hexane-2,4-dione] | > 8.00
Cc1cc(C)c(CN2CCNC[C@@H]2C)c(-c2ncnc3cc(CN4C(=O)C5CC5C4=O)sc23)c1 (stereo partly drawn) [Example 71, 3-((4-(3,5-dimethyl-2-(((S)-2-methylpiperazin-1-yl)methyl)phenyl)thieno[3,2-d]pyrimidin-6-yl)methyl)-3-azabicyclo[3.1.0]hexane-2,4-dione] | < 7.00
C[C@@H]1CN(Cc2c(Cl)cc(Cl)cc2-c2ncnc3cc(CN4C(=O)C5CC5C4=O)sc23)[C@@H](C)CN1 (stereo partly drawn) [Example 75, 3-((4-(3,5-dichloro-2-(((2S,5R)-2,5-dimethylpiperazin-1-yl)methyl)phenyl)thieno[3,2-d]pyrimidin-6-yl)methyl)-3-azabicyclo[3.1.0]hexane-2,4-dione] | > 8.00
Cc1cc(Cl)cc(-c2ccnc3cc(CN4C(=O)CCC4=O)sc23)c1CN1[C@H](C)CNC[C@@H]1C [Example 22, 1-((7-(5-chloro-2-(((2R,6S)-2,6-dimethylpiperazin-1-yl)methyl)-3-methylphenyl)thieno[3,2-b]pyridin-2-yl)methyl)pyrrolidine-2,5-dione] | > 8.00
Cc1cc(Cl)cc(-c2ccnc3cc(CN4C(=O)C5CC5C4=O)sc23)c1C[C@@H]1CNCC(C)(C)O1 (stereo partly drawn) [Example 129, 3-((7-(5-chloro-2-(((R)-6,6-dimethylmorpholin-2-yl)methyl)-3-methylphenyl)thieno[3,2-b]pyridin-2-yl)methyl)-3-azabicyclo[3.1.0]hexane-2,4-dione] | > 8.00
Cc1cc(Cl)cc(-c2ncnc3ccsc23)c1CC1CNCCO1 (centres unmarked) [Example 173, 2-(4-chloro-2-methyl-6-(thieno[3,2-d]pyrimidin-4-yl)benzyl)morpholine] | < 7.00
Cc1cc(Cl)cc(-c2ccnc3cc(CN4C(=O)C5CC5C4=O)sc23)c1C(=O)N1[C@@H](C)CNC[C@@H]1C (stereo partly drawn) [Example 35, 3-((7-(5-chloro-2-((2S,6S)-2,6-dimethylpiperazine-1-carbonyl)-3-methylphenyl)thieno[3,2-b]pyridin-2-yl)methyl)-3-azabicyclo[3.1.0]hexane-2,4-dione] | 7.00 to 8.00
Cc1cc(Cl)cc(-c2ccnc3cc(CN4C(=O)C5CC5C4=O)sc23)c1CC1CNCCS1(=O)=O (centres unmarked) [Example 100, 3-((7-(5-chloro-2-((1,1-dioxidothiomorpholin-2-yl)methyl)-3-methylphenyl)thieno[3,2-b]pyridin-2-yl)methyl)-3-azabicyclo[3.1.0]hexane-2,4-dione] | 7.00 to 8.00
C[C@H]1CNCCN1Cc1c(F)cc(F)cc1-c1ncnc2cc(CN3C(=O)C4CC4C3=O)sc12 (stereo partly drawn) [Example 74, 3-((4-(3,5-difluoro-2-(((S)-2-methylpiperazin-1-yl)methyl)phenyl)thieno[3,2-d]pyrimidin-6-yl)methyl)-3-azabicyclo[3.1.0]hexane-2,4-dione] | < 7.00

More lines, now with the values ahead:

pIC50 | SMILES
> 8.00 | Cc1cc(Cl)cc(-c2ncnc3cc(CN4C(=O)CCC4=O)sc23)c1C[C@@H]1CNCCO1 [Example 197, (R)-1-((4-(5-chloro-3-methyl-2-(morpholin-2-ylmethyl)phenyl)thieno[3,2-d]pyrimidin-6-yl)methyl)pyrrolidine-2,5-dione]
> 8.00 | Cc1cc(Cl)cc(-c2ncnc3cc(CN4C(=O)C5CC5C4=O)sc23)c1CC1CNCCCO1 (centres unmarked) [Example 189, 3-((4-(2-((1,4-oxazepan-2-yl)methyl)-5-chloro-3-methylphenyl)thieno[3,2-d]pyrimidin-6-yl)methyl)-3-azabicyclo[3.1.0]hexane-2,4-dione]
> 8.00 | Cc1cc(Cl)cc(-c2ncnc3cc(CN4C(=O)N(C)C(C)(C)C4=O)sc23)c1CC1CNCCO1 (centres unmarked) [Example 200, 3-((4-(5-chloro-3-methyl-2-(morpholin-2-ylmethyl)phenyl)thieno[3,2-d]pyrimidin-6-yl)methyl)-1,5,5-trimethylimidazolidine-2,4-dione]
< 7.00 | Cc1cc(Cl)cc(-c2ncnc3cc(CN4CCCC4=O)sc23)c1CC1CNCCO1 (centres unmarked) [Example 174, 1-((4-(5-chloro-3-methyl-2-(morpholin-2-ylmethyl)phenyl)thieno[3,2-d]pyrimidin-6-yl)methyl)pyrrolidin-2-one]
> 8.00 | Cc1cc(Cl)cc(-c2ncnc3cc(Cn4c(=O)ccn(C5CCC5)c4=O)sc23)c1CC1CNCCO1 (centres unmarked) [Example 166, 3-((4-(5-chloro-3-methyl-2-(morpholin-2-ylmethyl)phenyl)thieno[3,2-d]pyrimidin-6-yl)methyl)-1-cyclobutylpyrimidine-2,4(1H,3H)-dione]
> 8.00 | Cc1cc(Cl)cc(-c2ccnc3cc(CN4C(=O)CN(C)C4=O)sc23)c1CC1CNCCO1 (centres unmarked) [Example 117, 3-((7-(5-chloro-3-methyl-2-(morpholin-2-ylmethyl)phenyl)thieno[3,2-b]pyridin-2-yl)methyl)-1-methylimidazolidine-2,4-dione]
7.00 to 8.00 | Cc1cc(Cl)cc(-c2ncnc3cc(CN4C(=O)CCN(C)C4=O)sc23)c1C[C@H]1CNCC(C)(C)O1 [Example 214, (S)-3-((4-(5-chloro-2-((6,6-dimethylmorpholin-2-yl)methyl)-3-methylphenyl)thieno[3,2-d]pyrimidin-6-yl)methyl)-1-methyldihydropyrimidine-2,4(1H,3H)-dione]
> 8.00 | Cc1cc(Cl)cc(-c2ncnc3cc(CN4C(=O)CCC4=O)sc23)c1CC1CNCC(C)(C)O1 (centres unmarked) [Example 190, 1-((4-(5-chloro-2-((6,6-dimethylmorpholin-2-yl)methyl)-3-methylphenyl)thieno[3,2-d]pyrimidin-6-yl)methyl)pyrrolidine-2,5-dione]
> 8.00 | CN1CCC(=O)N(Cc2cc3ncnc(-c4cc(Cl)cc(Cl)c4CC4CNCCO4)c3s2)C1=O (centres unmarked) [Example 205, 3-((4-(3,5-dichloro-2-(morpholin-2-ylmethyl)phenyl)thieno[3,2-d]pyrimidin-6-yl)methyl)-1-methyldihydropyrimidine-2,4(1H,3H)-dione]
> 8.00 | Cc1cc(Cl)cc(-c2ccnc3cc(CN4C(=O)CN(C)C4=O)sc23)c1C[C@@H]1CNCCO1 [Example 126, (R)-3-((7-(5-chloro-3-methyl-2-(morpholin-2-ylmethyl)phenyl)thieno[3,2-b]pyridin-2-yl)methyl)-1-methylimidazolidine-2,4-dione]
> 8.00 | CC1(C)CNCC(Cc2c(Cl)cc(Cl)cc2-c2ncnc3cc(CN4C(=O)C5CC5C4=O)sc23)O1 (centres unmarked) [Example 227, 3-((4-(3,5-dichloro-2-((6,6-dimethylmorpholin-2-yl)methyl)phenyl)thieno[3,2-d]pyrimidin-6-yl)methyl)-3-azabicyclo[3.1.0]hexane-2,4-dione]
